US20130040882A1, “USE OF FIBROBLAST GROWTH FACTOR FRAGMENTS” (NOVARTIS AG, priority 2003, published 2013)
“Also recorded” adds a separate entry of the source.

Experiments:
[1] = system: gene expression in organs; assay: Blind monkey trial of three peptides: gene expression profiling of organs on Affymetrix U95 chips; format: in vivo, cynomolgus monkeys; details: 100 μg/animal/day sc, two weeks
[2] = Blind monkey trial of three peptides: biochemistry, clinical chemistry screening and histopathology; format: in vivo, cynomolgus monkeys; details: 100 μg/animal/day sc, two weeks
Description: For the verification of the selected human proteins or peptides in cynomolgus monkeys, one control and four treated groups (i.e., each of three peptides and placebo) of two males and two females are treated for two weeks by daily administration of the proteins dissolved in autologous serum (e.g., in each animal's own serum) through the subcutaneous route. The administration of the peptides was blinded. The amount of peptide administered was 100 μg/animal/day (5-6 mg of peptide total).
Drug profiling in these non-human primates was analyzed using gene expression profiling of more than 100 organs on Affymetrix U95 chips (each containing ⅓ of the human genome). In addition, extensive biochemistry and clinical chemistry screening (>60 parameters) and histopathology (ca. 60 organs) were performed.

For “Peptide 2: gonadotrophin releasing hormone (QHWSYGLRPG; Gonadoliberin-1; UniProt P01148 24-33, looked up)”, which “Conclusions of the in vivo Profiling by the Data Mining Team: Function/Pathway” value [1] is on record?
The value was “Ovarian and testicular”.

What about the “Findings by the Data Mining Team: Adrenals (gene with direction)” value [1] of the same substance?
The value was “Follistatin+; also recorded: IGF2+; also recorded: catecholamines synthesis+; also recorded: activin A−/inhibin+”.

And the “Findings by the Data Mining Team: Bone marrow (gene with direction)” value [1]?
The value was “Macrophages+; also recorded: eosinophils+; also recorded: activin A−; also recorded: inhibin betaB+”.

What about the “Findings by the Data Mining Team: Hypothalamus (gene with direction)” value [1] of the same substance?
The value was “Transthyretin+; also recorded: oxytocin”.

What about the “Findings by the Data Mining Team: Kidney (gene with direction)” value [1] of the same substance?
Its value is “Thiol protease inhibitor (aldosterone + in biochemistry), and +GAPDH and +STAT and +JAK and +TEGT”.

And the “Findings by the Data Mining Team: Liver (gene with direction)” value [1]?
The value was “Activin A−; also recorded: inhibin betaB+; also recorded: lipid metabolism+; also recorded: glycolysis+; also recorded: follistatin+; also recorded: IDO1+; also recorded: VEGF−”.

What about the “Findings by the Data Mining Team: Mammary gland” value [1] of the same substance?
Its value is “Inconclusive; Sampling heterogenous”.

What about the “Findings by the Data Mining Team: Ovary (gene with direction)” value [1] of the same substance?
The value was “Nuclear receptors−; also recorded: aromatase and estrogen synthase+; also recorded: activinA−; also recorded: inhibin beta B+”.

What about the “Findings by the Data Mining Team: Testis (gene with direction)” value [1] of the same substance?
The value was “CREM+”.

And the “Findings by the Data Mining Team: Thymus (gene with direction)” value [1]?
Its value is “Integrin alpha6+; also recorded: VAP1+; also recorded: lipid metabolism; also recorded: binding protein+,”.

And the “Findings by the Data Mining Team: Thyroid (gene with direction)” value [1]?
Its value is “Ocludin+; also recorded: thyroid hormone binding protein+; also recorded: THR alpha−”.

And the “Findings by the Data Mining Team: Biochemistry/Histopathology/Haematology (parameter with direction)” value [2]?
Its value is “Slight increase in aldosterone”.
